In the oligonucleotide strings, read from the 5' end, every base follows the letter of its sugar. An asterisk marks phosphorothioate; unmarked linkages are phosphodiester. Other units and linkages are bracketed, terminal groups are in braces. A string of capitals states the bases alone. d = 2'-deoxy (DNA); m = 2'-O-methyl; f = 2'-fluoro
What was measured:
Type in all cases: cell-based, human
[1] = test system: AR FL(1); assay: AR protein knock-down by Western blot after siRNA transfection in 22RV1 cells: AR FL(1); settings: 5 nM siRNA, 50 h post transfection, compared to controls
Description: (§1) In some instances, a set of AR siRNAs were identified that were predicted to be specific in human and non-human primates (NHP) and cross-reactive with NHPs but not rodent AR mRNA. To identify AR siRNAs that regulate both full length AR and clinically relevant AR splice variants, the search for AR siRNAs was focused primarily, but not exclusively, on exons 1, 2 and 3 of the AR gene, which are common to most AR isoforms. The resulting set of 50 AR siRNAs (Tables 1-3) was assessed in two prostate cancer lines that express high levels of either clinically relevant AR splice variants (22RV1, ATCC) or a full length AR T877A LBD mutant (LNCaP, ATCC). The response of LNCaP tumors in xenograft models to AR antagonists is known to correlate well with clinical responses.
(§2) To monitor their ability to downregulate various AR isoforms, each siRNA was formulated at a single final concentration of 5 nM with a commercially-available transfection reagent (Lipofectamine RNAiMAX, Life Technologies) according to the manufacturer's “forward transfection” instructions. At 50 h (22RV1) and 72 h (LNCaP) post transfection, cells were harvested, and lysed in RIPA buffer (Pierce) supplemented with HALT protease inhibitors (Pierce) using standard procedures. The protein concentration was determined using a BCA protein concentration kit (Pierce). To monitor AR levels in these lysates, proteins (30 ug/lane) were separated by PAGE on BOLT 4-12% Bis-Tris PA gels (Life Technologies), transferred to nitrocellulose using an iBlot dry blot system (Thermo Fisher), and probed with specific antibodies against a region of the N-terminal domain of human AR that is common in known clinically relevant splice variants (N20, Santa Cruz Biotech). A second antibody against α-Tubulin was used as control (P16, Santa Cruz Biotech). Levels of these proteins in the respective cell lysates were quantified on an Odyssey imaging system (LICOR) using appropriate secondary antibodies linked to IRDyes (800CW, 680RD).

[2] = test system: AR FL (full length AR T877A LBD mutant); assay: AR protein knock-down by Western blot after siRNA transfection in LNCaP cells: AR FL; settings: 5 nM siRNA, 72 h post transfection, compared to controls
Description: as §1, §2

[3] = test system: AR-SV(3); assay: AR protein knock-down by Western blot after siRNA transfection in 22RV1 cells: AR-SV(3); settings: 5 nM siRNA, 50 h post transfection, compared to controls
Description: as §1, §2

[4] = test system: AR-SV(2); assay: AR protein knock-down by Western blot after siRNA transfection in 22RV1 cells: AR-SV(2); settings: 5 nM siRNA, 50 h post transfection, compared to controls
Description: as §1, §2

Substance	% KD AR Protein 22RV1 AR FL(1) [1]	% KD AR Protein LNCaP AR FL [2]	% KD AR Protein 22RV1 AR-SV(3) [3]	% KD AR Protein 22RV1 AR-SV(2) [4]
XD-01815: AR siRNA with chemical modification, Id # 1968; sense X05325 (SEQ ID NO: 155), antisense X05326 (SEQ ID NO: 156) (sense mGmCfCmCfCmAfUmUfGmGfCmCfGmAfAmUfGmCfAdT*dT; antisense fUfGmCfAmUfUmCfGmGfCmCfAmAfUmGfGmGfGmCdT*dT)	−10%	91%	−15%	5%
XD-01853: AR siRNA with chemical modification, Id # 3310; sense X05401 (SEQ ID NO: 231), antisense X05402 (SEQ ID NO: 232) (sense mAmCfGmAfCmCfAmGfAmUfGmGfCmUfGmUfCmAfUdT*dT; antisense fAfUmGfAmCfAmGfCmCfAmUfCmUfGmGfUmCfGmUdT*dT)	91%	99%	13%	−43%
XD-01814: AR siRNA with chemical modification, Id # 1784; sense X05323 (SEQ ID NO: 153), antisense X05324 (SEQ ID NO: 154) (sense mCmAfAmUfUmAfCmUfUmAfGmGfGmGfGmCfAmCfUdT*dT; antisense fAfGmUfGmCfCmCfCmCfUmAfAmGfUmAfAmUfUmGdT*dT)	−7%	94%	−30%	20%
XD-01856: AR siRNA with chemical modification, Id # 3469; sense X05407 (SEQ ID NO: 237), antisense X05408 (SEQ ID NO: 238) (sense mGmUfGmUfCmCfGmAfAmUfGmAfGmGfCmAfCmCfUdT*dT; antisense fAfGmGfUmGfCmCfUmCfAmUfUmCfGmGfAmCfAmCdT*dT)	77%	99%	−74%	−61%
XD-01839: AR siRNA with chemical modification, Id # 2933; sense X05373 (SEQ ID NO: 203), antisense X05374 (SEQ ID NO: 204) (sense mAmUfUmCfCmGfAmAfGmGfAmAfAmAfAmUfUmGfUdT*dT; antisense fAfCmAfAmUfUmUfUmUfCmCfUmUfCmGfGmAfAmUdT*dT)	76%	93%	56%	62%
XD-01841: AR siRNA with chemical modification, Id # 2936; sense X05377 (SEQ ID NO: 207), antisense X05378 (SEQ ID NO: 208) (sense mCmCfGmAfAmGfGmAfAmAfAmAfUmUfGmUfCmCfAdT*dT; antisense fUfGmGfAmCfAmAfUmUfUmUfUmCfCmUfUmCfGmGdT*dT)	85%	99%	74%	85%
XD-01834: AR siRNA with chemical modification, Id # 2923; sense X05363 (SEQ ID NO: 193), antisense X05364 (SEQ ID NO: 194) (sense mCmUfAmUfUmGfAmUfAmAfAmUfUmCfCmGfAmAfGdT*dT; antisense fCfUmUfCmGfGmAfAmUfUmUfAmUfCmAfAmUfAmGdT*dT)	90%	91%	79%	91%
XD-01857: AR siRNA with chemical modification, Id # 3473; sense X05409 (SEQ ID NO: 239), antisense X05410 (SEQ ID NO: 240) (sense mCmCfGmAfAmUfGmAfGmGfCmAfCmCfUmCfUmCfUdT*dT; antisense fAfGmAfGmAfGmGfUmGfCmCfUmCfAmUfUmCfGmGdT*dT)	79%	100%	1%	−7%
XD-01823: AR siRNA with chemical modification, Id # 2739; sense X05341 (SEQ ID NO: 171), antisense X05342 (SEQ ID NO: 172) (sense mAmCfUmGfCmCfAmGfGmGfAmCfCmAfUmGfUmUfUdT*dT; antisense fAfAmAfCmAfUmGfGmUfCmCfCmUfGmGfCmAfGmUdT*dT)	−5%	79%	−19%	0%
XD-01852: AR siRNA with chemical modification, Id # 3218; sense X05399 (SEQ ID NO: 229), antisense X05400 (SEQ ID NO: 230) (sense mGmCfUmCfUmCfUmAfGmCfCmUfCmAfAmUfGmAfAdT*dT; antisense fUfUmCfAmUfUmGfAmGfGmCfUmAfGmAfGmAfGmCdT*dT)	16%	34%	10%	8%
XD-01850: AR siRNA with chemical modification, Id # 3107; sense X05395 (SEQ ID NO: 225), antisense X05396 (SEQ ID NO: 226) (sense mCmAfUmUfGmAfAmGfGmCfUmAfUmGfAmAfUmGfUdT*dT; antisense fAfCmAfUmUfCmAfUmAfGmCfCmUfUmCfAmAfUmGdT*dT)	86%	82%	5%	14%
XD-01843: AR siRNA with chemical modification, Id # 2961; sense X05381 (SEQ ID NO: 211), antisense X05382 (SEQ ID NO: 212) (sense mCmGfUmCfUmUfCmGfGmAfAmAfUmGfUmUfAmUfGdT*dT; antisense fCfAmUfAmAfCmAfUmUfUmCfCmGfAmAfGmAfCmGdT*dT)	78%	94%	47%	75%
XD-01855: AR siRNA with chemical modification, Id # 3462; sense X05405 (SEQ ID NO: 235), antisense X05406 (SEQ ID NO: 236) (sense mAmGfCmCfAmGfUmGfUmGfUmCfCmGfAmAfUmGfAdT*dT; antisense fUfCmAfUmUfCmGfGmAfCmAfCmAfCmUfGmGfCmUdT*dT)	12%	75%	−18%	−1%
XD-01862: AR siRNA with chemical modification, Id # 3781; sense X05419 (SEQ ID NO: 249), antisense X05420 (SEQ ID NO: 250) (sense mGmCfGmUfGmGfAmCfUmUfUmCfCmGfGmAfAmAfUdT*dT; antisense fAfUmUfUmCfCmGfGmAfAmAfGmUfCmCfAmCfGmCdT*dT)	92%	87%	40%	24%
XD-01822: AR siRNA with chemical modification, Id # 2263; sense X05339 (SEQ ID NO: 169), antisense X05340 (SEQ ID NO: 170) (sense mCmCfCmAfCmGfCmUfCmGfCmAfUmCfAmAfGmCfUdT*dT; antisense fAfGmCfUmUfGmAfUmGfCmGfAmGfCmGfUmGfGmGdT*dT)	34%	88%	41%	33%
XD-01858: AR siRNA with chemical modification, Id # 3475; sense X05411 (SEQ ID NO: 241), antisense X05412 (SEQ ID NO: 242) (sense mGmAfAmUfGmAfGmGfCmAfCmCfUmCfUmCfUmCfAdT*dT; antisense fUfGmAfGmAfGmAfGmGfUmGfCmCfUmCfAmUfUmCdT*dT)	93%	99%	66%	25%
XD-01840: AR siRNA with chemical modification, Id # 2935; sense X05375 (SEQ ID NO: 205), antisense X05376 (SEQ ID NO: 206) (sense mUmCfCmGfAmAfGmGfAmAfAmAfAmUfUmGfUmCfCdT*dT; antisense fGfGmAfCmAfAmUfUmUfUmUfCmCfUmUfCmGfGmAdT*dT)	89%	97%	75%	89%
